Data: patent US9938261B2, “Heterocyclic compounds and methods of use thereof” (AMBIT BIOSCIENCES CORPORATION, priority 2011, dated 2018)
pIC50, pKd: −log10 of the molar value. Where two headings read alike, the source gives them in different places.

What was measured:
[1] = target: T1, FLT3 (Homo sapiens, UniProt P36888); experiment: Competition binding assay, FLT3 Kd
T1 construct: made in house
T1 sequence (P36888 27-993): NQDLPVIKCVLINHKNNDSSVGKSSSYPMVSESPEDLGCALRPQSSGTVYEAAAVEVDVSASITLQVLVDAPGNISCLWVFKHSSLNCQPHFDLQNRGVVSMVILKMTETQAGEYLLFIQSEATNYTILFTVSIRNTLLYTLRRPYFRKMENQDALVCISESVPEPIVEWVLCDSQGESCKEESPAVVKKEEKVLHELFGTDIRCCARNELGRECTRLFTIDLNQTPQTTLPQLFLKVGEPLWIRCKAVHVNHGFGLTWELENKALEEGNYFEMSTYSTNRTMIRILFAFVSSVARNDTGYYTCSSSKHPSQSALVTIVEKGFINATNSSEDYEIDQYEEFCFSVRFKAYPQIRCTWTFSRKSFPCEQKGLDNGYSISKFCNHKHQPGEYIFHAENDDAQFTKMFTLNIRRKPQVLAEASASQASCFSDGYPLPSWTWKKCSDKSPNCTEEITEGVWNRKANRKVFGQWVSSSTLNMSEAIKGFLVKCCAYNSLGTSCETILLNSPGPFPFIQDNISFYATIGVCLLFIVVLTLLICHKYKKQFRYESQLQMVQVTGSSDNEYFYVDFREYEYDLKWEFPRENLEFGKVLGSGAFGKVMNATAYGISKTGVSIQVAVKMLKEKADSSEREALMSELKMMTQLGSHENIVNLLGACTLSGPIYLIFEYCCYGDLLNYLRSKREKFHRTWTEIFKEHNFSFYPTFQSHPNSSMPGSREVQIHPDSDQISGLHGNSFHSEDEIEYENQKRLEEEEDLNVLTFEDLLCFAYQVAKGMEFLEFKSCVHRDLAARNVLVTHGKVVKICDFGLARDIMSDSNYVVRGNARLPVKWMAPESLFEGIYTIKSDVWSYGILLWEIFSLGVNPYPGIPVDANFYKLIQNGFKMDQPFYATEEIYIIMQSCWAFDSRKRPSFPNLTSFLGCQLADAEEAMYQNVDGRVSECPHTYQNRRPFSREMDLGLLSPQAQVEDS
Method: (§1) Competition binding assays used herein were developed, validated and performed as described in Fabian et al., Nature Biotechnology 2005, 23, 329-336. Kinases were produced as fusions to T7 phage (See, Fabian et al. or WO04/015142) or alternatively, the kinases were expressed in HEK-293 cells and subsequently tagged with DNA for PCR detection (See, WO08/005310). For the binding assays, streptavidin-coated magnetic beads were treated with biotinylated affinity ligands for 30 min at room temperature to generate affinity resins. The liganded beads were blocked with excess biotin and washed with blocking buffer (SeaBlock (Pierce), 1% BSA, 0.05% Tween 20, 1 mM DTT) to remove unbound ligand and to reduce non-specific binding. Binding reactions were assembled by combining kinase, liganded affinity beads, and test compounds in 1× binding buffer (20% SeaBlock, 0.17×PBS, 0.05% Tween 20, 6 mM DTT). Test compounds were prepared as 100× stocks in DMSO and diluted into the aqueous environment. Kds were determined using an eleven point threefold serial dilutions. DMSO or control compounds were was added to control assays lacking a test compound. Primary screen assays were performed in polypropylene 384-well plates in a final volume of 20-40 μL, while Kd determinations were performed in polystyrene 96-well plates in a final volume of 135 μL. The assay plates were incubated at room temperature with shaking for 1 hour to allow the binding reactions to reach equilibrium, and the affinity beads were washed extensively with wash buffer (1×PBS, 0.05% Tween 20) to remove unbound protein. The beads were then resuspended in elution buffer (1×PBS, 0.05% Tween […] non-biotinylated affinity ligand) and incubated at room temperature with shaking for 30 min. The kinase concentration in the eluates was measured by quantitative PCR.

[2] = target: T2, KIT (Homo sapiens, UniProt P10721); experiment: Competition binding assay, KIT Kd
T2 construct: made in house
Method: as §1

[3] = target: T3, PDGFRβ (Homo sapiens, UniProt P09619); experiment: Competition binding assay, PDGFRβ Kd
T3 construct: made in house
Method: as §1

[4] = test system: M-NFS-60 cells; experiment: M-NFS-60 cell proliferation assay (Alamar Blue); assay type: cell-based, mouse; details: 72 hours incubation, M-CSF 20 ng/mL, read-out: CSF1R M-NFS-60 CTB:IC50
Method: The compounds disclosed herein were tested in an M-NFS-60 cell proliferation assay to determine their cellular potency against CSF1R. M-NFS-60s are mouse monocytic cells that depend on the binding of the ligand M-CSF to its receptor, CSF1R, to proliferate. Inhibition of CSF1R kinase activity will cause reduced growth and/or cell death. This assay assesses the potency of compounds as CSF1R inhibitors by measuring the reduction of Alamar Blue reagent by viable cells.
On day one of the experiment, M-NFS-60 cells were maintained in RPMI complete medium (Omega Scientific) plus 10% FBS supplemented with 20 ng/mL of M-CSF (R&D Systems). 96-well TC-treated, flat bottom plates were seeded at 10,000 cell/well at a volume of 100 μL per well. The cells were cultured overnight at 37° C. under 5% CO2.
On day two, compounds were added to the cells at 9 different concentrations, with half-log intervals alongside a control reference compound serving as a positive control. Final DMSO concentration was kept at 0.5% for a final volume of 200 μL. The compounds were allowed to incubate with the cells for 72 hours at 37° C. under 5% CO2.
On day five of the experiment, 40 μl of Alamar Blue reagent was added to each well and allowed to incubate for 3 hours. Alamar Blue fluorescence was read using SoftMax Pro software at 560 nm (excitation) and 590 nm (emission). IC50s were generated as an average of duplicates and represents the concentration of test compound that achieves 50% inhibition of cellular proliferation compared to control.

[5] = target: T4, CSF1R (Homo sapiens, UniProt P07333); experiment: Competition binding assay, CSF1R Kd; set-up: made in house
Method: as §1

[6] = target: T4, CSF1R; experiment: HEK293 CSF1R phosphorylation MSD assay; assay type: cell-based; set-up: expressed in transfected cells; host or cells: HEK293; details: 2 h compound, human M-CSF 50 ng/mL for 5 min; read-out: HEK293 pCSF1R M-CSF MSD:IC50
Method: The compounds disclosed herein were tested in a CSF1R phosphorylation assay to determine their cellular potency against CSF1R. A HEK293 cell line expressing CSF1R fused to FK506 binding protein (FKBP) as a molecular tag was generated. Inhibition of CSF1R kinase activity will prevent ligand-stimulated autophosphorylation of the CSF1R-FKBP in intact cells. Subsequent cell lysates are assayed in a sandwich ELISA employing the electrochemiluminescent Meso Scale Discovery (MSD) technology for the presence of the phosphorylated (p)CSF1R-FKBP. This assay determines the potency of compounds as CSF1R inhibitors by measuring the reduction in the amount of pCSF1R with increasing doses of compounds added to the cells prior to M-CSF stimulation.
On day one of the experiment, HEK293-CSF1R-FKPB cells, maintained in DMEM, with L-glutamine (Mediatech), 10% FBS, and 100 units/mL Penicillin/Streptomycin, were seeded at 50,000 cell/well in a volume of 100 μL per well in 96-well Cell Bind plates (Costar). The cells were cultured overnight at 37° C. under 5% CO2. To prepare the plates used in the MSD assay, a 330 nM biotin-FK506 (in TBS pH 7.2) solution was added at 30 μL per well to streptavidin-coated 96-well plates (MSD), and incubated overnight at room temperature, shaking at 500 rpm on an orbital shaker.
On day two, compounds diluted in DMSO were added to the cells in duplicate plates at 9 different concentrations with half-log intervals, plus DMSO only control, alongside a reference compound serving as a positive control. Final DMSO concentration was 0.5% in a volume of 200 μL per well. The compounds were allowed to incubate with the cells for 2 h at 37° C. under 5% CO2. At the end of the incubation, human M-CSF (R&D Systems) was added for 5 min to a final concentration of 50 ng/mL to stimulate CSF1R phosphorylation. Cells were lysed for 20 min, and the lysates were applied to the washed, FK506-coated MSD plates, and incubated overnight at 4° C. shaking at 500 rpm.
On day three, the MSD plates were washed, and the captured CSF1R-FKBP was assayed sequentially for phosphorylation using mouse anti-phosphotyrosine antibody (Millipore) and Sulfo-TAG goat anti-mouse IgG antibody (MSD), and detected on a Sector Imager 6000 instrument (MSD).
A single IC50 value for each compound was determined by averaging the IC50s of the duplicates calculated using Igor Pro 6 software, and represents the compound concentration that achieves a 50% inhibition of ligand-induced CSF1R phosphorylation compared to DMSO control.

T4 sequence (P07333 20-972): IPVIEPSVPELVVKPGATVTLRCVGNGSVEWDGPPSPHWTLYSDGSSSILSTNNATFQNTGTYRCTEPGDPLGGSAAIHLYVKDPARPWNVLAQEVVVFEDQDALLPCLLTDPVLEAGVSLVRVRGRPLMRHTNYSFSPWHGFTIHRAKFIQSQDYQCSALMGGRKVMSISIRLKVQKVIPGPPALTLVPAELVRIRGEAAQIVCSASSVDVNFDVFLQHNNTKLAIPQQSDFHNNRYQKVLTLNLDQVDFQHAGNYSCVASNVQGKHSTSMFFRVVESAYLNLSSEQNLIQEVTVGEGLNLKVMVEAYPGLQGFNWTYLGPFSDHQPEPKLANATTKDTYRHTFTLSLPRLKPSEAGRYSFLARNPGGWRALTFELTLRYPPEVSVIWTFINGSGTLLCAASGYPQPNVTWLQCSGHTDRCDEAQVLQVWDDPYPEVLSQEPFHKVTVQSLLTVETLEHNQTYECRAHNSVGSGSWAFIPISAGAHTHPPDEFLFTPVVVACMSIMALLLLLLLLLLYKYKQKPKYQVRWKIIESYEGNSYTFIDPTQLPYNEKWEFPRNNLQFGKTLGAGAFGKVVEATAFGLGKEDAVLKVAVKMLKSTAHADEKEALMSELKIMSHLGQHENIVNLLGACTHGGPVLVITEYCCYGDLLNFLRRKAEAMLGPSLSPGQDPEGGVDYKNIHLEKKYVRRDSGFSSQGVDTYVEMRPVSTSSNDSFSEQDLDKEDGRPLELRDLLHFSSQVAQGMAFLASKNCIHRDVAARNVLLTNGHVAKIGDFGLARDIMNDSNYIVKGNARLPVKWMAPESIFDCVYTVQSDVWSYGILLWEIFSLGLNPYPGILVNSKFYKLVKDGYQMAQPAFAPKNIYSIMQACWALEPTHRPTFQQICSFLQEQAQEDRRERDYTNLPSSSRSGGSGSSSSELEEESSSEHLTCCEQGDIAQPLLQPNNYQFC
T2 sequence (P10721 26-976): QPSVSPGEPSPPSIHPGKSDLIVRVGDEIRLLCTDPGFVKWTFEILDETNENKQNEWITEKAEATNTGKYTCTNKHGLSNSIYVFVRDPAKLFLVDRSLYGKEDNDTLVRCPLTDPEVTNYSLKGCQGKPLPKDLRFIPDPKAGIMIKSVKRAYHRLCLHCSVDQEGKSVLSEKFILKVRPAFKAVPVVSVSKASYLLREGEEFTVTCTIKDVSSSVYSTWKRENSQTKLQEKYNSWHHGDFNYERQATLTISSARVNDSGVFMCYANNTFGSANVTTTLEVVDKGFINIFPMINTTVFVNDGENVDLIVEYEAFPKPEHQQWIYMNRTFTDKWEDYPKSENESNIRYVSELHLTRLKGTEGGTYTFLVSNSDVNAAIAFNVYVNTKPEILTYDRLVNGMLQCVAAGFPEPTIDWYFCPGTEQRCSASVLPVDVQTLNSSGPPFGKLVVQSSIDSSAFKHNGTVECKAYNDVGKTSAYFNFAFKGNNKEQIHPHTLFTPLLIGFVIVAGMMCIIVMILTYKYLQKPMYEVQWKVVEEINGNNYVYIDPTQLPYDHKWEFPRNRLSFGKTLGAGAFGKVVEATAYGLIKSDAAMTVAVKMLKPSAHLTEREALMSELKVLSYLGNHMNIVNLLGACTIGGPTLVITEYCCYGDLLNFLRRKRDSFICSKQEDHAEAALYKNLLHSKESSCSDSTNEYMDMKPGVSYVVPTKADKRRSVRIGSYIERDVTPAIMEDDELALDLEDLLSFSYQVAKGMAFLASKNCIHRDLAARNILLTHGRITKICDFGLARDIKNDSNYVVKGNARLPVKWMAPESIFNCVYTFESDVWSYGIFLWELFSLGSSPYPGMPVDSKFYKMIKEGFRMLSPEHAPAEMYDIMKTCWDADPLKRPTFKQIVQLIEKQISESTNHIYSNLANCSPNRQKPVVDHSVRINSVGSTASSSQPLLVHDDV
T3 sequence (P09619 33-1106): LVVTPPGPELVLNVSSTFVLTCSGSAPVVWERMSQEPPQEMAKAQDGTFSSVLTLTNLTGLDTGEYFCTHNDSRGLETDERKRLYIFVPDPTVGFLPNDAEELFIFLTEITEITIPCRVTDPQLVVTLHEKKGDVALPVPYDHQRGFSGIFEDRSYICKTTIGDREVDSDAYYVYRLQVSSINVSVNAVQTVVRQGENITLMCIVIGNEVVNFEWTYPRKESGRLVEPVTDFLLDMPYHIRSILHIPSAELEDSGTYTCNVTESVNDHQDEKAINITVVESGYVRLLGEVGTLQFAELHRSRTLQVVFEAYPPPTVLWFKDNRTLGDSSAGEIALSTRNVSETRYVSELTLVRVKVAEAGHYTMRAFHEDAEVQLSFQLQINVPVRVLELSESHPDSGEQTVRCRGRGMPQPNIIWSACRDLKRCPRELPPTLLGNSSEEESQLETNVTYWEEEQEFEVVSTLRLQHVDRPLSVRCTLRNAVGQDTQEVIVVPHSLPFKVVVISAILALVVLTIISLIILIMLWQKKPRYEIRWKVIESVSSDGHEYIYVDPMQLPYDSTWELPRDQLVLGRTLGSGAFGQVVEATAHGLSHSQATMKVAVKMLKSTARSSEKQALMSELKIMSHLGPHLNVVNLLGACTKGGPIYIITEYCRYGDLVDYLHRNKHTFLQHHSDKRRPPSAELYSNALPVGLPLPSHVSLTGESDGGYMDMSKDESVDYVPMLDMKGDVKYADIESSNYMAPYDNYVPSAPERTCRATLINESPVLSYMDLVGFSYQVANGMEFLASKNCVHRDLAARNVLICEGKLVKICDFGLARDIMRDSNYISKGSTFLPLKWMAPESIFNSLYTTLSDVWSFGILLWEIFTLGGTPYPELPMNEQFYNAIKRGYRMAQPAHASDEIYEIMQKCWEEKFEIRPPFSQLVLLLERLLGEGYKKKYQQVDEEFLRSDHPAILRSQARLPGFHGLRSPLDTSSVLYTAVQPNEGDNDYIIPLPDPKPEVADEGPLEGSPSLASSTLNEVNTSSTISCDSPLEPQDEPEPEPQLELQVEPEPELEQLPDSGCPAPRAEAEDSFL

| Compound | pKd [1] | pKd [2] | pKd [3] | pKd [5] | pIC50 [6] | pIC50 ([4]; Mus musculus) | pIC50 [4] |
| --- | --- | --- | --- | --- | --- | --- | --- |
| (1R,2R)-1-((6-((4-(1-methyl-1H-pyrazol-4-yl)-1H-imidazol-1-yl)methyl)benzo[d]thiazol-2-yl)amino)-2,3-dihydro-1H-inden-2-ol or (1R,2R)-1-((6-((5-(1-methyl-1H-pyrazol-4-yl)-1H-imidazol-1-yl)methyl)benzo[d]thiazol-2-yl)amino)-2,3-dihydro-1H-inden-2-ol [Example 32] | 6.00 to 6.70 | < 5.70 | < 5.70 | < 7.30 | < 6.30 | – | < 5.82 |
| O[C@@H]1CCCC[C@H]1Nc1nc2ccc(Cn3cnc4ncccc43)cc2s1 [Example 5, (1R,2R)-2-((6-((1H-imidazo[4,5-b]pyridin-1-yl)methyl)benzo[d]thiazol-2-yl)amino)cyclohexanol] | < 5.30 | < 5.70 | < 5.70 | < 7.30 | < 6.30 | < 5.82 | – |
| COC(c1ccc2nc(N[C@@H]3CCCC[C@H]3O)sc2c1)c1c[nH]c2ncccc12 (stereo partly drawn) [Example 12, (1R,2R)-2-((6-(methoxy(1H-pyrrolo[2,3-b]pyridin-3-yl)methyl)benzo[d]thiazol-2-yl)amino)cyclohexanol] | 5.30 to 6.00 | < 5.70 | < 5.70 | < 7.30 | 6.30 to 6.70 | < 5.82 | – |
| COC(=O)c1cnc2c(c1)ncn2Cc1ccc2nc(N[C@@H]3CCCC[C@H]3O)sc2c1 [Example 79, methyl 3-((2-(((1R,2R)-2-hydroxycyclohexyl)amino)benzo[d]thiazol-6-yl)methyl)-3H-imidazo[4,5-b]pyridine-6-carboxylate] | 6.00 to 6.70 | ≥ 7.00 | ≥ 7.30 | 7.70 to 8.30 | ≥ 7.30 | ≥ 7.30 | – |
| COc1cc2ncn(Cc3ccc4nc(NCCN5CCOCC5)sc4c3)c2cc1OC [Example 14, 6-((5,6-dimethoxy-1H-benzo[d]imidazol-1-yl)methyl)-N-(2-morpholinoethyl)benzo[d]thiazol-2-amine] | 5.30 to 6.00 | < 5.70 | 5.70 to 6.30 | < 7.30 | < 6.30 | < 5.82 | – |
| Cn1nnc(-c2cnc3c(c2)ncn3Cc2ccc3nc(N[C@@H]4CCCC[C@H]4O)sc3c2)n1 [Example 94, (1R,2R)-2-((6-((6-(2-methyl-2H-tetrazol-5-yl)-3H-imidazo[4,5-b]pyridin-3-yl)methyl)benzo[d]thiazol-2-yl)amino)cyclohexanol] | 6.00 to 6.70 | 6.30 to 7.00 | 6.30 to 7.30 | 7.70 to 8.30 | ≥ 7.30 | ≥ 7.30 | – |
| O[C@H]1CCCCC1Nc1nc2ccc(Cn3cnc4ccccc43)cc2s1 (stereo in doubt) [Example 7, (1S,2S)-2-((6-((1H-benzo[d]imidazol-1-yl)methyl)benzo[d]thiazol-2-yl)amino)cyclohexanol] | 6.00 to 6.70 | 6.30 to 7.00 | ≥ 7.30 | 7.70 to 8.30 | 6.70 to 7.30 | 5.82 to 6.40 | – |

More lines, main results first:

| pKd [1] | pKd [2] | pKd [3] | pKd [5] | pIC50 [6] | Compound | pIC50 ([4]; Mus musculus) | pIC50 [4] |
| --- | --- | --- | --- | --- | --- | --- | --- |
| < 5.30 | < 5.70 | 5.70 to 6.30 | 7.70 to 8.30 | 6.30 to 6.70 | O[C@@H]1CCCC[C@H]1Nc1nc2ccc(Cn3cnc4ccncc43)cc2s1 [Example 71, (1R,2R)-2-((6-((3H-imidazo[4,5-c]pyridin-3-yl)methyl)benzo[d]thiazol-2-yl)amino)cyclohexanol] | 5.82 to 6.40 | – |
| 5.30 to 6.00 | 6.30 to 7.00 | < 5.70 | 7.70 to 8.30 | 6.70 to 7.30 | COc1cc2ncn(Cc3ccc4nc(Nc5ccccc5)sc4c3)c2cc1OC [Example 22, 6-((5,6-dimethoxy-1H-benzo[d]imidazol-1-yl)methyl)-N-phenylbenzo[d]thiazol-2-amine] | 5.82 to 6.40 | – |
| 5.30 to 6.00 | 6.30 to 7.00 | 6.30 to 7.30 | 7.70 to 8.30 | 6.70 to 7.30 | COc1cc2ncn(Cc3ccc4nc(NCc5ccccc5)sc4c3)c2cc1OC [Example 13, N-benzyl-6-((5,6-dimethoxy-1H-benzo[d]imidazol-1-yl)methyl)benzo[d]thiazol-2-amine] | 5.82 to 6.40 | – |
